Reference: patent publication US11771738B2 (Zoetis Services LLC, priority 2018, dated 2023)
Like-named read-outs stand apart in the source and are kept apart here. Marks after values point to notes of the source that are not given here.

Assays:
Assay type in all cases: cell-based
[1] = test system: microfilariae of Dirofilaria immitis; assay: Dirofilaria immitis, Microfilaria (DiMf) In Vitro Assay; settings: for minimal effective concentration: Dirofilaria immitis, 72 h, read-out: DiMf MED, Minimum Effective Dose, D. immitis microfilariae motility, in vitro
D. immitis L4 larvae = assay: Dirofilaria immitis, L4 Stage (DiL4) In Vitro Assay; settings: for minimal effective concentration: Dirofilaria immitis, 72 h, read-out: DiL4 MED, Minimum Effective Dose, D. immitis L4 larvae motility, in vitro; for DiMf/DiL4: larval stage selectivity, ratio of DiMf MED to DiL4 MED
[2] = test system: third stage larvae of Haemonchus contortus; assay: Haemonchus contortus, Larvae Stage 3 (HcL3) In Vitro Assay; settings: for minimal effective concentration: Haemonchus contortus, 96 h
[3] = read-out: HcL3 MED, Haemonchus contortus third stage larvae in vitro, class mark appended to the Ex # in Table 3
[4] = read-out: HcL3 MED, Minimum Effective Dose, H. contortus third stage larvae, approximately 96 hours
[5] = read-out: HcL3 MED, approximately 96 hours incubation, multiple-resistant field isolate

Row | Compound | minimal effective concentration [1] [µM] | minimal effective concentration (D. immitis L4 larvae) [µM] | DiMf/DiL4 (D. immitis L4 larvae) | minimal effective concentration [2, 3] [µM] | minimal effective concentration [2, 4] [µM] | minimal effective concentration [2, 5] [µM] | DiMf MED ([1]; Minimum Effective Dose, D. immitis microfilariae motility, in vitro) [nM] | DiL4 MED (D. immitis L4 larvae; Minimum Effective Dose, D. immitis L4 larvae motility, in vitro) [nM] | HcL3 MED ([2]; Minimum Effective Dose, H. contortus third stage larvae, approximately 96 hours) [µM] | HcL3 MED (symbol after Ex#) ([2]; approximately 96 hours incubation, multiple-resistant field isolate) | minimal effective concentration ([2]; read-out: HcL3 MED (symbol after Ex#), approximately 96 hours incubation, multiple-resistant field isolate) [µM]
1 | CC(C)C[C@H]1C(=O)O[C@H](Cc2ccc(Cc3ccsc3)cc2)C(=O)N(C)[C@@H](CC(C)C)C(=O)O[C@H](C)C(=O)N(C)[C@@H](CC(C)C)C(=O)O[C@H](Cc2ccc(Cc3ccsc3)cc2)C(=O)N(C)[C@@H](CC(C)C)C(=O)O[C@H](C)C(=O)N1C [Example 3-56, (3S,6R,9S,12R,15S,18R,21S,24R)-3,9,15,21-tetraisobutyl-4,6,10,16,18,22-hexamethyl-12,24-bis(4-(thiophen-3-ylmethyl)benzyl)-1,7,13,19-tetraoxa-4,10,16,22-tetraazacyclotetracosan-2,5,8,11,14,17,20,23-octaone] | 0.1 | 0.0005 | 200 | < 1 | 0.5 | ≤ 1 |  |  |  |  | 
2 | Cc1ncccc1Cc1ccc(C[C@H]2OC(=O)[C@H](CC(C)C)N(C)C(=O)[C@@H](C)OC(=O)[C@H](CC(C)C)N(C)C(=O)[C@@H](Cc3ccccc3)OC(=O)[C@H](CC(C)C)N(C)C(=O)[C@@H](C)OC(=O)[C@H](CC(C)C)N(C)C2=O)cc1 [Example 4-139] |  |  | 2.5 |  |  |  | 1 | 0.4 | 1 | 4-139* (Examples with an asterisk (*) have HcL3 MED values≤1 μM) | 
3 | CC(C)C[C@H]1C(=O)O[C@H](Cc2ccc(C(c3ccc(F)c(F)c3)n3cccn3)cc2)C(=O)N(C)[C@@H](CC(C)C)C(=O)O[C@H](C)C(=O)N(C)[C@@H](CC(C)C)C(=O)O[C@H](Cc2ccc(C(c3ccc(F)c(F)c3)n3cccn3)cc2)C(=O)N(C)[C@@H](CC(C)C)C(=O)O[C@H](C)C(=O)N1C (stereo partly drawn) [Example 1-18, (3S,6R,9S,12R,15S,18R,21S,24R)-6,18-bis(4-((3,4-difluorophenyl)(1H-pyrazol-1-yl)methyl)benzyl)-3,9,15,21-tetraisobutyl-4,10,12,16,22,24-hexamethyl-1,7,13,19-tetraoxa-4,10,16,22-tetraazacyclotetracosan-2,5,8,11,14,17,20,23-octaone] | 0.003 | < 0.0001 | >30 |  | > 100 |  |  |  |  |  | 
4 | Cc1ncccc1Cc1ccc(C[C@@H]2OC(=O)[C@H](CC(C)C)N(C)C(=O)[C@@H](C)OC(=O)[C@@H](CC(C)C)N(C)C(=O)[C@@H](Cc3ccc(Cc4cccnc4C)cc3)OC(=O)[C@@H](CC(C)C)N(C)C(=O)[C@@H](C)OC(=O)[C@H](CC(C)C)N(C)C2=O)cc1 [Example 3-273, (3S,6R,9R,12R,15R,18R,21S,24S)-3,9,15,21-tetraisobutyl-4,6,10,16,18,22-hexamethyl-12,24-bis[[4-[(2-methyl-3-pyridyl)methyl]phenyl]methyl]-1,7,13,19-tetraoxa-4,10,16,22-tetrazacyclotetracosane-2,5,8,11,14,17,20,23-octaone] | 0.002 | 0.0003 | 6.7 | < 1 | 1 | ≤ 1 |  |  |  |  | 
5 | CC(C)C[C@H]1C(=O)O[C@H](Cc2ccc(Cc3ccco3)cc2)C(=O)N(C)[C@@H](CC(C)C)C(=O)O[C@H](C)C(=O)N(C)[C@@H](CC(C)C)C(=O)O[C@H](Cc2ccccc2)C(=O)N(C)[C@@H](CC(C)C)C(=O)O[C@H](C)C(=O)N1C [Example 4-32, (3S,6R,9S,12R,15S,18R,21S,24R)-6-benzyl-18-(4-(furan-2-ylmethyl)benzyl)-3,9,15,21-tetraisobutyl-4,10,12,16,22,24-hexamethyl-1,7,13,19-tetraoxa-4,10,16,22-tetraazacyclotetracosan-2,5,8,11,14,17,20,23-octaone] | 0.003 | 0.001 | 3 |  | 1 | ≤ 1 |  |  |  |  | < 1
